The text below walks through data of US20160089371A1, “Combination of Kinase Inhibitors and Uses Thereof” (INTELLIKINE, LLC, priority 2013, published 2016).

Structures are written as SMILES. pIC50: −log10 of the molar value. Like-named read-outs stand apart in the source and are kept apart here. Bounds are passed on as bounds.

As usually defined, the pIC50 is the IC50 on a negative log10 scale, so that one unit is a factor of ten.

Data set [1] has as its system T47D. Kind of data set: T47D proliferation. Format: cell-based. The following applies: Homo sapiens; T47D cell line.
Data set [2] has as its system PC3. Description: PC3 proliferation. Format: cell-based. The following applies: Homo sapiens, PC-3; PC3 cell line (compounds before 438).
Data set [3] addresses PI3K δ (Homo sapiens, UniProt O00329). Description: PI 3-Kinase (human) HTRF assay, p110δ/p85α. A general note: TR-FRET usually uses a lanthanide donor and a delayed reading to cut background.
Description: (§1) Briefly, the assay is a time resolved FRET assay that indirectly measures PIP3 product formed by the activity of a PI3-K. The kinase reaction is performed in a microtiter plate (e.g., a 384 well microtiter plate). The total reaction volume is approximately 20 ul per well. In the first step, each well receives 2 ul of test compound in 20% dimethylsulphoxide resulting in a 2% DMSO final concentration. […] The plate is sealed and incubated for 15 minutes at room temperature. […] The plate is sealed and incubated for 1 hour at room temperature. The reaction is stopped by adding 5 ul of Stop Solution per well and then 5 ul of Detection Mix is added per well. The plate is sealed, incubated for 1 hour at room temperature, and then read on an appropriate plate reader. Data is analyzed and IC50s are generated using GraphPad Prism 5.
In data set [4] the target is PI3K γ (Homo sapiens, UniProt P48736). Description: PI 3-Kinase (human) HTRF assay, p110γ.
Description: as §1
Data set [5] has as its system MDA-MB-361. Description: MDA-MB-361 proliferation. Format: cell-based. Conditions: Homo sapiens.
For data set [6], the target named is PI3K α (Homo sapiens, UniProt P42336). Kind of data set: PI 3-Kinase (human) HTRF assay, p110α/p85α.
Description: (§2) An exemplary system is PI 3-Kinase (human) HTRF™ Assay from Upstate. […] Briefly, the assay is a time resolved FRET assay that indirectly measures PIP3 product formed by the activity of a PI3-K. The kinase reaction is performed in a microtiter plate (e.g., a 384 well microtiter plate). The total reaction volume is approximately 20 ul per well. In the first step, each well receives 2 ul of test compound in 20% dimethylsulphoxide resulting in a 2% DMSO final concentration. […] The plate is sealed and incubated for 15 minutes at room temperature. […] The plate is sealed and incubated for 1 hour at room temperature. The reaction is stopped by adding 5 ul of Stop Solution per well and then 5 ul of Detection Mix is added per well. The plate is sealed, incubated for 1 hour at room temperature, and then read on an appropriate plate reader. Data is analyzed and IC50s are generated using GraphPad Prism 5.
The target of data set [7] is T1, mTOR (Homo sapiens, UniProt P42345).
T1 construct: purchased Invitrogen
Description: Inhibition assay of mTOR (radiometric or LanthaScreen TR-FRET). Type of data set: biochemical. The following applies: read-out: mTORC IC50.
Description: The compounds described herein can be tested against recombinant mTOR (Invitrogen) in an assay containing 50 mM HEPES, pH 7.5, 1 mM EGTA, 10 mM MgCl2, 2.5 mM, 0.01% Tween, 10 μM ATP (2.5 μCi of μ-32P-ATP), and 3 μg/mL BSA. Rat recombinant PHAS-1/4EBP1 (Calbiochem; 2 mg/mL) is used as a substrate. Reactions are terminated by spotting onto nitrocellulose, which is washed with 1M NaCl/1% phosphoric acid (approximately 6 times, 5-10 minutes each). Sheets are dried and the transferred radioactivity quantitated by phosphorimaging.
For instance, one can use Invitrogen's LanthaScreen™ Kinase assay to test the inhibitors of mTOR disclosed herein. This assay is a time resolved FRET platform that measures the phosphorylation of GFP labeled 4EBP1 by mTOR kinase. The kinase reaction is performed in a white 384 well microtiter plate. The total reaction volume is 20 ul per well and the reaction buffer composition is 50 mM HEPES pH7.5, 0.01% Polysorbate 20, 1 mM EGTA, 10 mM MnCl2, and 2 mM DTT. In the first step, each well receives 2 ul of test compound in 20% dimethylsulphoxide resulting in a 2% DMSO final concentration. […] The plate is sealed and incubated for 1 hour at room temperature. […] The plate is sealed, incubated for 1 hour at room temperature, and then read on a plate reader set up for LanthaScreen™ TR-FRET. Data is analyzed and IC50s are generated using GraphPad Prism 5.

Data set [8] has as its target PI3K β (Homo sapiens, UniProt P42338). Description: PI 3-Kinase (human) HTRF assay, p110β/p85α.
Description: as §2
Data set [9] deals with anti-TNP antibody production (B cell function). Kind of data set: TNP-Ficoll T-cell independent B-cell activation assay. Format: in vivo, mice. Conditions: 70 mg/kg GDC0941; 30, 60 or 120 mg/kg Compound A; 7 days. As to the method:
To test the effects of the compounds of the present invention in suppressing T cell independent antibody production, the TNP-Ficoll B-cell activation assay is used as described herein. Compounds of the present invention are dissolved in an appropriate vehicle (e.g. 5% 1-methyl-2-pyrrolidinone, 85% polyethylene glycol 400, 10% Solutor). Compounds are administered orally approximately lhr before TNP-Ficoll treatment to 4-10 week old mice. To study the effects of the compounds on B-cell activation, one set of mice are grouped according to the following table:
Four animals in group 1, and eight animals in groups 2 to 7 are euthanized in CO2 2 hours after the last compound administration on day 7. […]
Serum samples are analyzed for anti-TNP antibody titers by ELISA as described herein. […] HRP substrate (200 μl ABTS solution+30% H2O2+10 ml citrate buffer) is added to each well at 100 μl/well, incubated 2-20 minutes in the dark and the amount of anti-TNP IgG3 is determined spectrophotometrically at 405 nm. Similarly, anti-TNP IgM and total anti-TNP Ab are determined using anti-mouse IgM-HRP and anti-mouse Ig-HRP respectively.
Antibody production was measured using ELISA and plotted as a percentage of control group that were treated with vehicle.

The subject of data set [10] is marginal zone B cells. Description: Marginal zone B cells in mouse spleen (FACS). Conditions: 70 mg/kg Pan-PI3K inhibitor; 60 mg/kg Compound A; spleens 2 hrs after last dose.
Description: The effect of the compounds on the localization/viability of marginal zone B cells in the spleen is also evaluated at the conclusion of treatment.
Spleens were harvested 2 hrs after the last dose, processed and stained with appropriate antibodies (marginal zone B cell: B220+; CD23−; CD21hi) and analyzed for staining on GUAVA EasyCyte FACS machine using Guava Cytosoft 5.2 software.
The subject of data set [11] is B cell function. Description: B cell function in vivo, antibody production after TNP-Ficoll immunization. Conditions: mice immunized with TNP-Ficoll; 70 mg/kg GDC0941; 30, 60 or 120 mg/kg Compound A; 7 days; FIG. 8. As to the method: Mice were immunized with TNP-Ficoll and treated with 1) vehicle; 2) 70 mg/kg GDC0941; 3) 30 mg/kg Compound A; 4) 60 mg/kg Compound A; or 5) 120 mg/kg Compound A for 7 days. Antibody production was measured as a percentage of control group that were treated with vehicle.

Data set [12] relates to MDA-MB-361 (PI3Kα/HER2 carcinoma) tumors. Kind of data set: In vivo efficacy in xenogenic mouse model of breast cancer. Conditions: 70 mg/kg Pan-PI3K inhibitor; 60 mg/kg compound A. The arrangement: species or system nude mice. As to the method:
Blood glucose was monitored periodically following administration of treatment.
Treatment of tumors (MDA-MB-361) with compounds was discontinued on Day 30. Tumors were measured every 2-5 days.

PI3K δ, sequence (O00329 whole entry): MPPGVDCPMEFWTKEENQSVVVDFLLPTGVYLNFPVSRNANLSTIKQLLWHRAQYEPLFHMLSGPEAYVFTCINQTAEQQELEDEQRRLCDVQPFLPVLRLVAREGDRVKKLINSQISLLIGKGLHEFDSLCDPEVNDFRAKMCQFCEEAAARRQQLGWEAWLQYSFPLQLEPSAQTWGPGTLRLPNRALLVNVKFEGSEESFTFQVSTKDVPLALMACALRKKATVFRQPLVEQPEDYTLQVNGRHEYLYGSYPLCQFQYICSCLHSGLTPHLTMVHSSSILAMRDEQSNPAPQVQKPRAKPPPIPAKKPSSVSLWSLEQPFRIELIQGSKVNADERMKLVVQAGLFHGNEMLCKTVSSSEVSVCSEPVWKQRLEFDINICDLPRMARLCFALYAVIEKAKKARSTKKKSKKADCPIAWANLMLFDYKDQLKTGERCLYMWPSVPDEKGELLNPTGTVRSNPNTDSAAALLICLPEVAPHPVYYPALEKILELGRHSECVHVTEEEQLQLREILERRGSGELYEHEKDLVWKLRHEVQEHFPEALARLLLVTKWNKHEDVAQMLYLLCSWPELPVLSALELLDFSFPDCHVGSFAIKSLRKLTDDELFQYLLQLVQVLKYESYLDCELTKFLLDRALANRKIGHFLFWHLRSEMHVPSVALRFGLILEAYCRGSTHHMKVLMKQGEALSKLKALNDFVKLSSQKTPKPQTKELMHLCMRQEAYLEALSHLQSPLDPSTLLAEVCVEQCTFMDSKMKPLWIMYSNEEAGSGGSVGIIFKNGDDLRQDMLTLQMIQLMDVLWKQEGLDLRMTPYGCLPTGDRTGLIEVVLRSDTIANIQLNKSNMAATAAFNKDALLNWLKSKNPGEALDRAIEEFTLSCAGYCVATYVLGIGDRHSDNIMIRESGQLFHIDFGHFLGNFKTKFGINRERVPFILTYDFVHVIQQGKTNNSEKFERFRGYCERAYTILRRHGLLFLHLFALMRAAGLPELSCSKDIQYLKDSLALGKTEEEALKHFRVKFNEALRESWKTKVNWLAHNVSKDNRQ
PI3K δ, sequence (P27986 whole entry partner): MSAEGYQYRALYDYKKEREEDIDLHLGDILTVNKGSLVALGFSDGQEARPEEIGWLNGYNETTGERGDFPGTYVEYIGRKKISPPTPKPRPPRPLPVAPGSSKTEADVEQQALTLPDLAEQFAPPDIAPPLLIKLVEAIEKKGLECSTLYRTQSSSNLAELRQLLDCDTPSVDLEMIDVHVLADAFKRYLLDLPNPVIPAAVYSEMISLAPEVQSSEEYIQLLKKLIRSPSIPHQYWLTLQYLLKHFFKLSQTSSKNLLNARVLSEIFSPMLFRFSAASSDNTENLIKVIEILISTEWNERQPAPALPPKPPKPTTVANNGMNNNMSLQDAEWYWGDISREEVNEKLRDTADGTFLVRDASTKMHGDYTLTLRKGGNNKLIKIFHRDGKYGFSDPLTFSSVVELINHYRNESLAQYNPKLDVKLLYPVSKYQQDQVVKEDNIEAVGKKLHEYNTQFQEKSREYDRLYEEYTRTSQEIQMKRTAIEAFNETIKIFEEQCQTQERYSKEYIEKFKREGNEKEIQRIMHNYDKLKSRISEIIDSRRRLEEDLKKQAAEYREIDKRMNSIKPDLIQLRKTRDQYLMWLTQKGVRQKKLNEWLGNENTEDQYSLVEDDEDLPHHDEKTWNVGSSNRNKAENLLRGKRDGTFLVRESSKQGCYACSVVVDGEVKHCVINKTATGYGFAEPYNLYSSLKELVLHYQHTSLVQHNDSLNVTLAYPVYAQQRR
PI3K β, sequence (P42338 whole entry): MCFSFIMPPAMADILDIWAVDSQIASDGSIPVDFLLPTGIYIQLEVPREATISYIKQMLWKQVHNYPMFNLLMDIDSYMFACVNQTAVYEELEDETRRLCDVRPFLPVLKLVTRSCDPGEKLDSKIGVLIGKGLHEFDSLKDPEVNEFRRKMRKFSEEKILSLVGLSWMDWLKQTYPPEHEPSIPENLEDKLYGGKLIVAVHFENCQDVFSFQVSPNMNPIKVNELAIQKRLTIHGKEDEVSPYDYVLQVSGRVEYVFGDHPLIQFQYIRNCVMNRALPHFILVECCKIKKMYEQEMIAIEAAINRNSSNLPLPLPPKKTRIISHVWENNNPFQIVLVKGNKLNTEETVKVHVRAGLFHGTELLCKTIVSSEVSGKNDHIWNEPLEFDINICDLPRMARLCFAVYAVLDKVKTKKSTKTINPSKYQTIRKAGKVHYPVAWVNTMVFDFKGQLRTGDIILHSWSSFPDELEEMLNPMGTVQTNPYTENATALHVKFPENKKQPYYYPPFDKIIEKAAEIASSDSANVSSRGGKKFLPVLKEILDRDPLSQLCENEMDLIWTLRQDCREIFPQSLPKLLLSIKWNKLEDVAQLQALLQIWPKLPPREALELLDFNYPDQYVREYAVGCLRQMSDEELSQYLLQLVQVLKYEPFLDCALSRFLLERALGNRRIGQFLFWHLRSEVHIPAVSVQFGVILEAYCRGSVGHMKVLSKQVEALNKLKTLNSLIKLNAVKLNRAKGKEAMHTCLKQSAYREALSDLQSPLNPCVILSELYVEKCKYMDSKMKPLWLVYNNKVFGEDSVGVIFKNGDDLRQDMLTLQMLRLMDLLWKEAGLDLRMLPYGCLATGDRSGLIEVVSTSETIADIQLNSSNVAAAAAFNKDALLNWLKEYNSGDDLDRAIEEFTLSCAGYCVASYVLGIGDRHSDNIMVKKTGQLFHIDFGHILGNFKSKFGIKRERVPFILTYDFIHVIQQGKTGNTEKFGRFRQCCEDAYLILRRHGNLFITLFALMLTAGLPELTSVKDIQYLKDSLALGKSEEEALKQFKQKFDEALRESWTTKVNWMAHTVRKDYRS
PI3K β, sequence (P27986 whole entry partner): as the sequence (P27986 whole entry partner) above
PI3K γ, sequence (P48736 whole entry): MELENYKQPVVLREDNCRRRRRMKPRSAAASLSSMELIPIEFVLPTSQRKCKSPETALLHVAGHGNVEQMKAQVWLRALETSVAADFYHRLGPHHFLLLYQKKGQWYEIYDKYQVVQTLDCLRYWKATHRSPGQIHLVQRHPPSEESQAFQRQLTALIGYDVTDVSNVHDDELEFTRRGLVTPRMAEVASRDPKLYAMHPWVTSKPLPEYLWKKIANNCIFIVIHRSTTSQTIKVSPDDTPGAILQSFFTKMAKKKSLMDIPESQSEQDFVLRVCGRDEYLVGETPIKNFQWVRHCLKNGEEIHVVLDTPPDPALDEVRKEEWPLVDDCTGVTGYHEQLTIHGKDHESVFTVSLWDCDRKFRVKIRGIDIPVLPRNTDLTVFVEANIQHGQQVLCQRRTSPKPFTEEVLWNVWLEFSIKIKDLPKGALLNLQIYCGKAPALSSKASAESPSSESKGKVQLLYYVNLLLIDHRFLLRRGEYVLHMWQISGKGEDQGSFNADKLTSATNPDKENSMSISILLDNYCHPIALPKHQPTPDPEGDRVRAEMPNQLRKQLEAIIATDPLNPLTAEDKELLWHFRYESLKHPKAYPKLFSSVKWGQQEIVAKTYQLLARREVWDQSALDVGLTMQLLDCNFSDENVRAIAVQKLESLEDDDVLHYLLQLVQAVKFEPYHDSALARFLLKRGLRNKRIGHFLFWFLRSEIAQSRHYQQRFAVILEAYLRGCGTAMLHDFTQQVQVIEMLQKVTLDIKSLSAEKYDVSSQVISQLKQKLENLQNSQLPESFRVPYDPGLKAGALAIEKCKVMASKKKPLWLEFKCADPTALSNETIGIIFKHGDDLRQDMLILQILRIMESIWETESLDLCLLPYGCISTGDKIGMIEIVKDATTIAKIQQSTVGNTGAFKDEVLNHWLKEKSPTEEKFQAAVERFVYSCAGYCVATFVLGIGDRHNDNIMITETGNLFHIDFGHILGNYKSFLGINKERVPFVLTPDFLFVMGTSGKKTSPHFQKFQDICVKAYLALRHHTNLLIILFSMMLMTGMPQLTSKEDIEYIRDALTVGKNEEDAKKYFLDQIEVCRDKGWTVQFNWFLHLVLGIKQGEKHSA
PI3K α, sequence (P42336 whole entry): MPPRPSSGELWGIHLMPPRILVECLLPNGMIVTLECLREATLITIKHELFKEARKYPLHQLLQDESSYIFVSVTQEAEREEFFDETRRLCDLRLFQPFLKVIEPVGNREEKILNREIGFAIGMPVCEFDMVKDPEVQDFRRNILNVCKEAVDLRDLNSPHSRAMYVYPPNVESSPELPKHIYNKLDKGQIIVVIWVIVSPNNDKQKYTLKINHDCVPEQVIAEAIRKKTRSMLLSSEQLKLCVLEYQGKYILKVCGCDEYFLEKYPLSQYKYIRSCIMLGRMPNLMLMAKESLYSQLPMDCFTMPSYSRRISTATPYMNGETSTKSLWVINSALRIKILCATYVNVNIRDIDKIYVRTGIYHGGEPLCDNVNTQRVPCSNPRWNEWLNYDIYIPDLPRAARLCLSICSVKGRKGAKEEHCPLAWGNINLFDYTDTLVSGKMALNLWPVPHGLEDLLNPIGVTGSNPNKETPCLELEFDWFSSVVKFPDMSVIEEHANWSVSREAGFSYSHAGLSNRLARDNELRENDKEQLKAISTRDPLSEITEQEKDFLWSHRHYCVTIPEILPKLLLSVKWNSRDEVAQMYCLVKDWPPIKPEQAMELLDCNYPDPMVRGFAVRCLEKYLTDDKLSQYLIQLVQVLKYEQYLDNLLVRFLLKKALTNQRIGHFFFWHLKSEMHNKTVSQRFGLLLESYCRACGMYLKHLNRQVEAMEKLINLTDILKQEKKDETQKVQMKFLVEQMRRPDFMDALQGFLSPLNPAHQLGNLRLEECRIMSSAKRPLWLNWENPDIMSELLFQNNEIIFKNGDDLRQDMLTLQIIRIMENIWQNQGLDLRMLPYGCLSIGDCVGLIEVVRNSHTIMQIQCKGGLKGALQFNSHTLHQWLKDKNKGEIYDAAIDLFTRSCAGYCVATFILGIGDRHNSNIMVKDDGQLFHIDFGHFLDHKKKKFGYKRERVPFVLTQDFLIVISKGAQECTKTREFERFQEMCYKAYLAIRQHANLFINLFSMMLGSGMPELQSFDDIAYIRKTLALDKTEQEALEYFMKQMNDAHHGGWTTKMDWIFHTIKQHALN
PI3K α, sequence (P27986 whole entry partner): as the sequence (P27986 whole entry partner) above

`Nc1nc2cc(-c3ccc4nccc(-c5ccncc5)c4c3)ccc2o1` [Compound 1] had a pIC50 in data set [1] above 6.00. In [2], this compound displayed an IC50 below 1000 nM.

For `Nc1nc2cc(-c3ccc4ncc(C(=O)N5CC[C@H](F)C5)n4c3)ccc2o1` [Compound 476], the pIC50 in data set [3] was above 5.00; in data set [4], above 6.00.

With `Nc1nc2cc(-c3ccc4ncc(-c5cccnc5)nc4n3)ccc2o1` [Compound 567], the negative-log IC50 (pIC50) was above 5.00 in [3], above 7.00 in [4] and above 7.00 in data set [6]. The IC50 in data set [5] (MDA-MB-361 cells, Table 4, read-out: MDA-MB-361 proliferation (nM)*) is above 10000 nM.

Regarding `CN1CCN([C@@H]2CCN(c3cnc4ccc(-c5ccc6oc(N)nc6c5)cc4n3)C2)CC1` [Compound 379], in data set [7], the pIC50 is below 5.00.

Turning to `CC(C)[C@@H](N)C(=O)N1CCN(c2cnc3ccc(-c4ccc5oc(N)nc5c4)cc3n2)CC1` [Compound 270], in data set [4], the pIC50 is above 6.00.

For `Nc1nc2cc(-c3ccc4ncc(N[C@H]5CC[C@H](O)CC5)nc4c3)ccc2o1` [Compound 128], the negative-log IC50 (pIC50) in data set [3] was above 7.00; in data set [4] it was above 7.00; in data set [8], above 5.00; in [6], above 7.00.

Regarding `Nc1nc2cc(-c3ccn4ncc(C(=O)N5CCOCC5)c4c3)cc(Cl)c2o1` [Compound 359], the pIC50 in data set [3] is above 5.00; in [4], above 7.00; in data set [8] it was above 6.00; in data set [6] it was above 7.00.

`CC(C)[C@H](N)C(=O)N1CCN(c2cnc3ccc(-c4ccc5oc(N)nc5c4)cc3n2)CC1` [Compound 269] gave a pIC50 in data set [4] above 5.00.

`Nc1nc2cc(-c3ccc4ncc(N5CCC(N)CC5)nc4c3)ccc2o1` [Compound 168] gave a pIC50 in data set [4] above 5.00.

In the case of `Nc1nc2cc(-c3ccc4ncc(N5CC[C@H](N6CCOCC6)C5)nc4c3)ccc2o1` [Compound 375], the pIC50 in [3] is above 5.00; in [4] it was above 7.00.

As to `Nc1nc2cc(-c3ccc4ncc(C(=O)N5CC[C@H](n6cccn6)C5)n4c3)ccc2o1` [Compound 478], the “PI3K δ IC50 (nM)” value in [3] is “+++ +++”.

In the case of `C[C@H]1CN(c2cnc3ccc(-c4ccc5oc(N)nc5c4)cc3n2)CCN1C` [Compound 332], the pIC50 in data set [4] was above 6.00.

With `O=C(c1cnc2ccc(-c3ccc4c(Nc5ccccc5)noc4c3)cn12)N1CCOCC1` [Compound 509], the pIC50 is above 6.00 in [3], above 5.00 in data set [4], above 5.00 in [8] and above 7.00 in data set [6]. In addition, the IC50 in [5] (PC-3, read-out: PC3 proliferation (nM)*) was below 10000 nM.

For `CN1CCN(c2cnc3ccc(-c4ccc5nc(N)oc5c4)cn23)CC1` [Compound 542], the pIC50 in data set [3], in data set [4], in data set [8] and in [6] was below 5.00 in each case.

For `CN1CCC(N(C)c2ncnc3ccc(-c4ccc5oc(N)nc5c4)cc23)CC1` [Compound 155], in data set [4], the pIC50 was above 6.00.

For the compound `Nc1nc2cc(-c3ccc4ncc(N5CC(N6CCOCC6)C5)nc4n3)ccc2o1` [Compound 604], the pIC50 in [4] was above 6.00; in [8] it was above 5.00; in data set [7] (Table 4, PI3K α inhibitors) it was below 5.00.

In [1], `CC1CN(C(=O)c2cnc3ccc(-c4ccc5oc(N)nc5c4)cn23)CCN1` (centres unmarked) [Compound 164] gave a pIC50 above 6.00.

As for `Nc1nc2cc(-c3ccc4ncc(N5CCNC(=O)C5)nc4c3)ccc2o1` [Compound 135], the figures for the pIC50 in data set [3] and in [8] were above 5.00 and above 7.00, respectively.

In [4], `O=C(c1cnc2ccc(-c3ccc(Cl)c(NS(=O)(=O)c4ccc(F)cc4F)c3)cn12)N1CCOCC1` [Compound 461] had a pIC50 above 6.00.

In the case of `CS(=O)(=O)N1CCN(Cc2cc3nc(-c4cccc5[nH]ncc45)nc(N4CCOCC4)c3s2)CC1` [Pan-PI3K inhibitor, GDC0941, reference compound], in data set [9], the “B cell function in vivo, antibody production after TNP-Ficoll (FIG. 8)” value is given as “blocks B cell function in vivo”. The “presence (localization/viability) of marginal zone B cells in mouse spleen (FIG. 9 right panel)” value in [10] was “reduced presence of MZB cells”. For the same compound, the “B cell function in vivo (antibody production, percentage of vehicle control)” value in data set [11] is given as “blocks B cell function”. Also, the “tumor weight in breast cancer model (FIG. 9 left panel)” value in data set [12] was “reduction in tumor weight”.

`[2H]c1c(-c2ccc3ncc(C(=O)N4CCOCC4)n3c2)c([2H])c2nc(N)oc2c1[2H]` [Compound 531] gave a pIC50 in data set [4] above 7.00.

`CN1CCC(NC(=O)c2cnc3ccc(-c4ccc5oc(N)nc5c4)cn23)CC1` [Compound 203]: the pIC50 is above 6.00 in data set [3], above 7.00 in data set [4] and above 7.00 in data set [8].

Regarding `Nc1nc2cc(-c3ccc4ncc(C(=O)N5CC(N6CC[C@@H](O)C6)C5)n4c3)ccc2o1` [Compound 470], the pIC50 in data set [3] is below 5.00; in data set [4], above 7.00; in data set [8], below 5.00.

`CN1CCN(CCNC(=O)c2cnc3ccc(-c4ccc5oc(N)nc5c4)cn23)CC1` [Compound 306] gave a pIC50 in data set [4] above 6.00.
